{"source": "paper PMC8373063", "about": "(2021)", "key": {"[1]": {"tested_on": "RNA Seq4 (immobilised) (RNA, single strand) AAGAAGGAAGGUGC", "test": "SPR, immobilised RNA", "conditions": "running buffer not shown; SMN-C2 up to 20 μM"}, "[2]": {"tested_on": "RNA Seq6 (RNA, single strand) UGAAGGAAGGU", "test": "fluorescence polarization", "conditions": "100 mM NaCl; 20 mM HEPES, 25 °C; 0.5 μM SMN-C2"}, "[3]": {"tested_on": "RNA Seq8 (RNA, single strand) UGAAGGAAGUU", "test": "fluorescence polarization", "conditions": "100 mM NaCl; 20 mM HEPES, 25 °C; 0.5 μM SMN-C2"}, "[4]": {"tested_on": "RNA Seq10 (RNA, single strand) UAAAGGAAGGU", "test": "fluorescence polarization", "conditions": "100 mM NaCl; 20 mM HEPES, 25 °C; 0.5 μM SMN-C2"}, "[5]": {"tested_on": "RNA Seq12 (RNA, single strand) UGAAAGAAGGU", "test": "fluorescence polarization", "conditions": "100 mM NaCl; 20 mM HEPES, 25 °C; 0.5 μM SMN-C2"}, "[6]": {"tested_on": "RNA Seq13 (RNA, single strand) UGAAGAAAGGU", "test": "fluorescence polarization", "conditions": "100 mM NaCl; 20 mM HEPES, 25 °C; 0.5 μM SMN-C2"}, "[7]": {"tested_on": "RNA Seq14 (RNA, single strand) AGAAGGUAGGU", "test": "fluorescence polarization", "conditions": "100 mM NaCl; 20 mM HEPES, 25 °C; 0.5 μM SMN-C2"}, "[8]": {"tested_on": "RNA Seq15 (RNA, single strand) UGAAGGAUGGU", "test": "fluorescence polarization", "conditions": "100 mM NaCl; 20 mM HEPES, 25 °C; 0.5 μM SMN-C2"}, "[9]": {"tested_on": "RNA Seq17 (RNA, single strand) UGAAGGAAGAU", "test": "fluorescence polarization", "conditions": "100 mM NaCl; 20 mM HEPES, 25 °C; 0.5 μM SMN-C2"}, "[10]": {"tested_on": "RNA Seq18 (binding site 1 sequence) (RNA, mismatch bulge abasic, pseudouridine at 5 and 6 of strand 1) AUACUUACCU/GGAGGUAAGUCU", "test": "fluorescence polarization", "conditions": "100 mM NaCl; 20 mM HEPES, 25 °C; 0.5 μM SMN-C2"}, "[11]": {"tested_on": "DNA Seq6 (DNA, single strand) TGAAGGAAGGT", "test": "fluorescence polarization", "conditions": "100 mM NaCl, 1 mM MgCl2; 20 mM HEPES, 25 °C; 0.5 μM SMN-C2"}, "[12]": {"tested_on": "DNA Seq7 (DNA, single strand) TTAAGGAAGGT", "test": "fluorescence polarization", "conditions": "100 mM NaCl, 1 mM MgCl2; 20 mM HEPES, 25 °C; 0.5 μM SMN-C2"}, "[13]": {"tested_on": "DNA Seq8 (DNA, single strand) TGAAGGAAGTT", "test": "fluorescence polarization", "conditions": "100 mM NaCl, 1 mM MgCl2; 20 mM HEPES, 25 °C; 0.5 μM SMN-C2"}, "[14]": {"tested_on": "DNA Seq10 (DNA, single strand) TAAAGGAAGGT", "test": "fluorescence polarization", "conditions": "100 mM NaCl, 1 mM MgCl2; 20 mM HEPES, 25 °C; 0.5 μM SMN-C2"}, "[15]": {"tested_on": "DNA Seq13 (DNA, single strand) TGAAGAAAGGT", "test": "fluorescence polarization", "conditions": "100 mM NaCl, 1 mM MgCl2; 20 mM HEPES, 25 °C; 0.5 μM SMN-C2"}, "[16]": {"tested_on": "DNA Seq14 (DNA, single strand) AGAAGGTAGGT", "test": "fluorescence polarization", "conditions": "100 mM NaCl, 1 mM MgCl2; 20 mM HEPES, 25 °C; 0.5 μM SMN-C2"}, "[17]": {"tested_on": "RNA Seq4 (RNA, single strand) AAGAAGGAAGGUGC", "test": "fluorescence polarization", "conditions": "100 mM NaCl; 20 mM HEPES, 25 °C, 0.5 μM compound"}, "[18]": {"tested_on": "DNA S26 (DNA, single strand) TGAAGGAAGG", "test": "fluorescence polarization", "conditions": "100 mM NaCl, 1 mM MgCl2; 20 mM HEPES, 25 °C; 0.5 μM SMN-C2"}, "[19]": {"tested_on": "DNA S27 (DNA, single strand) AGAAGGAAGG", "test": "fluorescence polarization", "conditions": "100 mM NaCl, 1 mM MgCl2; 20 mM HEPES, 25 °C; 0.5 μM SMN-C2"}, "[20]": {"tested_on": "DNA S1 (DNA, single strand) AAAAGAAGGAAGGTGCTC", "test": "fluorescence polarization", "conditions": "100 mM NaCl, 1 mM MgCl2; 20 mM HEPES, 25 °C; 0.5 μM SMN-C2"}, "[21]": {"tested_on": "DNA S8 (DNA, single strand) AAATGAAGGAAGGTGCTC", "test": "fluorescence polarization", "conditions": "100 mM NaCl, 1 mM MgCl2; 20 mM HEPES, 25 °C; 0.5 μM SMN-C2"}, "[22]": {"tested_on": "S4 (DNA, single strand) AAAAAGAAGAAGGTGCTC", "test": "fluorescence polarization", "conditions": "100 mM NaCl, 1 mM MgCl2; 20 mM HEPES, 25 °C, 0.5 μM compound"}, "[23]": {"tested_on": "S5 (DNA, single strand) AAAAGAAUGAAGGTGCTC", "test": "fluorescence polarization", "conditions": "100 mM NaCl, 1 mM MgCl2; 20 mM HEPES, 25 °C, 0.5 μM compound"}, "[24]": {"tested_on": "S6 (DNA, single strand) AAAAGAAGGAGGGTGCTC", "test": "fluorescence polarization", "conditions": "100 mM NaCl, 1 mM MgCl2; 20 mM HEPES, 25 °C, 0.5 μM compound"}, "[25]": {"tested_on": "S7 (DNA, single strand) AATAGAAGGAAGGTGCTC", "test": "fluorescence polarization", "conditions": "100 mM NaCl, 1 mM MgCl2; 20 mM HEPES, 25 °C, 0.5 μM compound"}, "[26]": {"tested_on": "S10 (DNA, single strand) AAAAGTAGGAAGGTGCTC", "test": "fluorescence polarization", "conditions": "100 mM NaCl, 1 mM MgCl2; 20 mM HEPES, 25 °C, 0.5 μM compound"}, "[27]": {"tested_on": "S13 (DNA, single strand) AAAAGAAGGTAGGTGCTC", "test": "fluorescence polarization", "conditions": "100 mM NaCl, 1 mM MgCl2; 20 mM HEPES, 25 °C, 0.5 μM compound"}, "[28]": {"tested_on": "S16 (DNA, single strand) AAAAGAAGGAAGTTGCTC", "test": "fluorescence polarization", "conditions": "100 mM NaCl, 1 mM MgCl2; 20 mM HEPES, 25 °C, 0.5 μM compound"}, "[29]": {"tested_on": "S17 (DNA, single strand) AAAGGAAGGAAGGTGCTC", "test": "fluorescence polarization", "conditions": "100 mM NaCl, 1 mM MgCl2; 20 mM HEPES, 25 °C, 0.5 μM compound"}, "[30]": {"tested_on": "S21 (DNA, single strand) AAAAAAAGGAAGGTGCTC", "test": "fluorescence polarization", "conditions": "100 mM NaCl, 1 mM MgCl2; 20 mM HEPES, 25 °C, 0.5 μM compound"}, "[31]": {"tested_on": "S22 (DNA, single strand) AAAAGAAAGAAGGTGCTC", "test": "fluorescence polarization", "conditions": "100 mM NaCl, 1 mM MgCl2; 20 mM HEPES, 25 °C, 0.5 μM compound"}, "[32]": {"tested_on": "S24 (DNA, single strand) AAAAGAAGGAAAGTGCTC", "test": "fluorescence polarization", "conditions": "100 mM NaCl, 1 mM MgCl2; 20 mM HEPES, 25 °C, 0.5 μM compound"}, "[33]": {"tested_on": "S25 (DNA, single strand) AAAAGAAGGAAGATGCTC", "test": "fluorescence polarization", "conditions": "100 mM NaCl, 1 mM MgCl2; 20 mM HEPES, 25 °C, 0.5 μM compound"}, "[34]": {"tested_on": "RNA Seq20 (RNA, hairpin) UGAAGGAAGGUUUCGACCUUCCUUCA", "test": "fluorescence polarization", "conditions": "100 mM NaCl; 20 mM HEPES, 25 °C, 0.5 μM compound"}, "[35]": {"tested_on": "DNA Seq21 (DNA, hairpin) GCGCCGACTGAAGGAAGGAGTCGGCGC", "test": "fluorescence polarization", "conditions": "100 mM NaCl, 1 mM MgCl2; 20 mM HEPES, 25 °C, 0.5 μM compound"}, "[36]": {"tested_on": "RNA Seq21 (RNA, hairpin) GCGCCGACUGAAGGAAGGAGUCGGCGC", "test": "fluorescence polarization", "conditions": "100 mM NaCl; 20 mM HEPES, 25 °C, 0.5 μM compound"}, "[37]": {"tested_on": "RNA Seq22 (RNA, other) GUGCCAGUUCGCUGGCACUGAAGGAAGGU", "test": "fluorescence polarization", "conditions": "100 mM NaCl; 20 mM HEPES, 25 °C, 0.5 μM compound"}, "[38]": {"tested_on": "RNA Seq23 (RNA, mismatch bulge abasic) GCCAGGCGCACUUUCGAGUGCGCGAAGGAAGGCUGGC", "test": "fluorescence polarization", "conditions": "100 mM NaCl; 20 mM HEPES, 25 °C, 0.5 μM compound"}}}
{"compound": "CCN1CCN(c2ccc3cc(-c4cn5cc(C)nc(C)c5n4)c(=O)oc3c2)C[C@@H]1C", "values": [{"measurement": "Kd", "setting": "[1]", "result": 5.4, "unit": "µM"}, {"measurement": "Kd", "setting": "[2]", "result": "17.5 ± 2.2", "unit": "µM"}, {"measurement": "Kd", "setting": "[3]", "result": "> 100", "unit": "µM"}, {"measurement": "Kd", "setting": "[4]", "result": "> 100", "unit": "µM"}, {"measurement": "Kd", "setting": "[5]", "result": "> 100", "unit": "µM"}, {"measurement": "Kd", "setting": "[6]", "result": "> 100", "unit": "µM"}, {"measurement": "Kd", "setting": "[7]", "result": "9.9 ± 0.8", "unit": "µM"}, {"measurement": "Kd", "setting": "[8]", "result": "9.4 ± 0.5", "unit": "µM"}, {"measurement": "Kd", "setting": "[9]", "result": "48.2 ± 9.0", "unit": "µM"}, {"measurement": "Kd", "setting": "[10]", "result": "60 ± 36", "unit": "µM"}, {"measurement": "Kd", "setting": "[11]", "result": "3.1 ± 0.7", "unit": "µM"}, {"measurement": "Kd", "setting": "[12]", "result": "> 100", "unit": "µM"}, {"measurement": "Kd", "setting": "[13]", "result": "14.7 ± 0.7", "unit": "µM"}, {"measurement": "Kd", "setting": "[14]", "result": "> 100", "unit": "µM"}, {"measurement": "Kd", "setting": "[15]", "result": "> 100", "unit": "µM"}, {"measurement": "Kd", "setting": "[16]", "result": "> 100", "unit": "µM"}, {"measurement": "Kd", "setting": "[17]", "result": "21.7 ± 4.3", "unit": "µM"}, {"measurement": "Kd", "setting": "[18]", "result": "6.2 ± 1.0", "unit": "µM"}, {"measurement": "Kd", "setting": "[19]", "result": "11.6 ± 1.7", "unit": "µM"}, {"measurement": "Kd", "setting": "[20]", "result": "15.3 ± 0.6", "unit": "µM"}, {"measurement": "Kd", "setting": "[21]", "result": "12.4 ± 0.4", "unit": "µM"}, {"measurement": "Kd", "setting": "[22]", "result": "> > 50 µM"}, {"measurement": "Kd", "setting": "[23]", "result": "42.3 ± 4.2", "unit": "µM"}, {"measurement": "Kd", "setting": "[24]", "result": "33.3 ± 2.3", "unit": "µM"}, {"measurement": "Kd", "setting": "[25]", "result": "17.3 ± 1.7", "unit": "µM"}, {"measurement": "Kd", "setting": "[26]", "result": "26.4 ± 2.2", "unit": "µM"}, {"measurement": "Kd", "setting": "[27]", "result": "26.4 ± 2.2", "unit": "µM"}, {"measurement": "Kd", "setting": "[28]", "result": "48.9 ± 12.2", "unit": "µM"}, {"measurement": "Kd", "setting": "[29]", "result": "16.5 ± 1.1", "unit": "µM"}, {"measurement": "Kd", "setting": "[30]", "result": "> > 50 µM"}, {"measurement": "Kd", "setting": "[31]", "result": "44.7 ± 7.2", "unit": "µM"}, {"measurement": "Kd", "setting": "[32]", "result": "36.8 ± 11.4", "unit": "µM"}, {"measurement": "Kd", "setting": "[33]", "result": "48 ± 7.8", "unit": "µM"}, {"measurement": "Kd", "setting": "[34]", "result": "> >100 μM"}, {"measurement": "Kd", "setting": "[35]", "result": "12.8 ± 4.7", "unit": "µM"}, {"measurement": "Kd", "setting": "[36]", "result": "4.6 ± 0.6", "unit": "µM"}, {"measurement": "Kd", "setting": "[37]", "result": "11.0 ± 0.8", "unit": "µM"}, {"measurement": "Kd", "setting": "[38]", "result": "5.6 ± 1.7", "unit": "µM"}]}
